Data: patent US20190125745A1, “TREATMENT AND DIAGNOSIS OF CANCER” (Rgenix, Inc., priority 2014, published 2019)
pEC50: −log10 of the molar value.

Assays:
[1] = tested on: B16F10 mouse melanoma cells; assay: Subcutaneous B16F10 tumor growth in C57BL/6 mice; type: in vivo; details: for melanoma primary tumor growth in vivo (B16F10): chow, WO-2010-0138598 Ex. 9 10 or 100 mg/kg/day, SB742881 100 mg/kg/day
Description: FIG. 4. Therapeutic LXR Activation Inhibits Melanoma Tumor Growth. […] Representative tumor images shown correspond to tumors extracted at the final day (d12). n=10-18 (A), 8-10 (B). (C-E) Primary tumor growth by 1×10^6 MeWo (C), […] SK-Mel-334.2 (D), and 2×10^6 SK-Mel-2 (E) human melanoma cells subcutaneously injected into immunocompromised mice. […] Tumor images shown correspond to last day of measurements. n=6-34 (C), 8 (D), 5 (E). (F) 5×10^4 B16F10 cells were injected subcutaneously into C57BL/6-WT mice. Upon tumor growth to 150 mm^3, mice were fed continuously with a control chow or a chow containing GW3965 (150 mg/kg), and tumor growth was measured daily. n=6-13. […] Tumor volume was calculated as (small diameter)^2×(large diameter)/2. […] Scale bars, 5 mm (A-D), 50 μm (J, K), 25 μm (L).
The mice were palpated daily for tumor formation and after detection of tumors measuring […] in volume, the mice were assigned to a control chow or a chow containing each respective LXR agonist: LXR-623 (20 mg/kg/day), WO-2007-002563 Ex. 19 (100 mg/kg/day), WO-2010-0138598 Ex. 9 (10 mg/kg/day or 100 mg/kg/day), or SB742881 (100 mg/kg/day). The LXR drug compounds were formulated in the mouse chow by Research Diets, Inc. Tumor dimensions were measured using digital calipers, and tumor volume was calculated as (small diameter)^2×(large diameter)/2.

ApoE expression = ApoE expression by qRT-PCR in human melanoma cells
Description: (A-B) Parental MeWo cells were incubated in the presence of DMSO or GW3965 at the indicated concentrations. After 48 hours, total RNA was extracted, and the levels of ApoE (A) and DNAJA4 (B) were determined by qRT-PCR. n=3. (C) Cell invasion by 1×10^5 parental MeWo cells pre-treated with GW3965 or DMSO for 48 hours. n=6-7. p-values based on a one-sided student's t-test. […] (D) Endothelial recruitment by 5×10^4 parental MeWo cells pre-treated with GW3965 or DMSO for 48 hours. n=6-7. p-values based on a one-sided student's t-test. (E) Mice were fed with grain-based chow diet containing GW3965 (20 mg/kg) or a control diet. After 10 days, 4×10^4 parental MeWo cells were tail-vein injected into mice, and the mice were continuously fed with GW3965-containing chow or a control diet throughout the experiment.
(A-C) MeWo (A), HT-144 (B), and WM-266-4 (C) human melanoma cells were treated with GW3965 or T0901317 at the indicated concentrations for 48 hours, and the expression levels of ApoE were analysed by qRT-PCR. n=3. (D) Extracellular ApoE protein levels, quantified by ELISA, in serum-free conditioned media collected from HT-144 human melanoma cells treated with DMSO, GW3965, or T0901317 at 1 μM for 72 hours. n=3-4. […] (I-J) Relative ApoE expression, quantified by qRT-PCR, in MeWo (I) and HT-144 (J) cells transduced with a control shRNA or shRNAs targeting LXRα or LXRβ and subsequently treated with DMSO, GW3965, or T0901317 at 1 μM for 48 hours. n=3-9. (K) Extracellular ApoE protein levels, measured by ELISA, in serum-free conditioned media harvested from HT-144 cells transduced with a control shRNA or an shRNA targeting LXRα or LXRβ and treated with DMSO or GW3965 at 1 μM for 72 hours. n=3.
RNA was extracted from whole cell lysates using the Total RNA Purification Kit (17200, Norgen, Thorold, Canada). 600 ng of total RNA was then reverse transcribed into cDNA using the cDNA First-Strand Synthesis Kit (18080-051, Invitrogen), and quantitative real-time PCR amplification was performed as previously described (Pencheva et al., 2012) using an ABI Prism 7900HT Real-Time PCR System (Applied Biosystems, Austin, Tex.). […]
For every sample, 600 ng of RNA was reverse transcribed into cDNA using the cDNA First-Strand Synthesis kit (Invitrogen). […] Each reaction was carried out in quadruplicates, and ApoE mRNA expression levels were measured by quantitative real-time PCR amplification using an ABI Prism 7900HT Real-Time PCR System (Applied Biosystems). The relative ApoE expression was determined using the ΔΔCt method.

[2] = tested on: MeWo, HT-144, SK-Mel-2, SK-Mel-334.2 human melanoma cells; assay: Cell invasion assay (trans-well matrigel); type: cell-based; details: 1 μM, 72 hours; for inhibiting cancer progression phenotypes (cell invasion, endothelial recruitment): MeWo cells, versus lower potency LXR agonists
Text: FIG. 2. Activation of LXRβ Signaling Suppresses Melanoma Cell Invasion and Endothelial Recruitment. (A) Heat-map depicting microarray-based expression levels of LXR and RXR isoforms in the NCI-60 melanoma cell line collection. The heat map for these genes is extracted from the larger nuclear hormone receptor family heat map (FIG. 3). Color-map key indicates the change in standard deviations for the expression value of each receptor relative to the average expression value of all microarray-profiled genes (>39,000 transcript variants) in each cell line. (B) Cell invasion by 1×10^5 MeWo, 5×10^4 HT-144, 5×10^5 SK-Mel-2, and 5×10^4 SK-Mel-334.2 human melanoma cells. Cells were treated with DMSO, GW3965, T0901317, or Bexarotene at 1 μM for 72 hours and subjected to a trans-well matrigel invasion assay. n=4-8. (C) 5×10^4 MeWo, HT-144, SK-Mel-2, and SK-Mel-334.2 human melanoma cells were tested for their ability to recruit 1×10^5 endothelial cells in a trans-well migration assay, following treatment of the melanoma cells with DMSO, GW3965, T0901317, or Bexarotene at 1 μM for 72 hours. n=4-8. […] Scale bar, 50 μm. *p<0.05, **p<0.01, ***p<0.001, ****p<0.0001.
The cell invasion assay was performed as previously described in detail (Pencheva et al., 2012) using a trans-well matrigel invasion chamber system (354480, BD Biosciences). In brief, various melanoma cells were cultured in the presence of DMSO, GW3965, T0901317, or Bexarotene at 1 μM for 56 hours, after which melanoma cells were switched to starvation media (0.2% FBS) for 16 hours in the presence of each drug. Following starvation, cells were seeded into matrigel-coated trans-well inserts, and the invasion assay was allowed to proceed for 24 hours at […]. For ApoE antibody neutralization experiments, 40 μg/mL 1 D7 anti-ApoE blocking antibody (Heart Institute, University of Ottawa, Ottawa, Canada) or […] anti-IgG control antibody (AB-108-C, R&D Systems, Minneapolis, Minn.) was added to each trans-well insert at the start of the assay.
The cells were then serum starved for 16 hours in 0.2% FBS media in the presence of each corresponding drug or DMSO. Following serum starvation, the cells were subjected to the trans-well invasion assay using a matrigel invasion chamber system (354480, BD Biosciences). Invasion chambers were pre-equilibrated prior to the assay by adding 0.5 mL of starvation media to the top and bottom wells. Meanwhile, cancer cells were trypsinized and viable cells were counted using trypan blue. Cancer cells were then resuspended at a concentration of 2×10^5 cells/1 mL starvation media, and 0.5 mL of cell suspension, containing 1×10^5 cells, was seeded into each trans-well. The invasion assay was allowed to proceed for 24 hours at 37° C. […] Following fixation, the inserts were washed in PBS, cut out, and mounted onto slides using VectaShield mounting medium containing DAPI nuclear stain (H-1000, Vector Laboratories). The basal side of each insert was imaged using an inverted fluorescence microscope (Zeiss Axiovert 40 CFL) at 5× magnification, and the number of DAPI-positive cells was quantified using ImageJ.

LXRα = biological target: T1, LXRα (Homo sapiens, UniProt Q13133); details: cited from earlier work
T1 sequence (Q13133 1-447): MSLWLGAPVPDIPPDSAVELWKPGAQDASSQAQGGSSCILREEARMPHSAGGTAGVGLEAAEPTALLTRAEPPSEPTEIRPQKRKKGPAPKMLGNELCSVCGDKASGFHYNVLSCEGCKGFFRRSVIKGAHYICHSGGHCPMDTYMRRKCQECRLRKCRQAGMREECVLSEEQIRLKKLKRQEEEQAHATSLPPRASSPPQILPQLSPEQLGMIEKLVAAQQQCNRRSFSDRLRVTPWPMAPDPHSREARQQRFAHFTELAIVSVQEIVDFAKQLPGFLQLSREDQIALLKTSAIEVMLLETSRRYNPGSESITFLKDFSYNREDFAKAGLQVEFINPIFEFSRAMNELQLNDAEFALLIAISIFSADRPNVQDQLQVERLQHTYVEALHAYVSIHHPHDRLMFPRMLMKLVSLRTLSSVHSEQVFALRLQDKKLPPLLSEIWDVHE

ApoE promoter = ApoE promoter activity assay (luciferase, ME.1/ME.2); type: cell-based, human; details: 1 μM
Text: FIG. 11. LXRβ Activation Suppresses Melanoma Invasion and Endothelial Recruitment by Transcriptionally Enhancing Melanoma-Cell ApoE Expression. […] Scale bar, 50 μm.
The ApoE promoter, consisting of a sequence spanning 980 base pairs upstream and 93 base pairs downstream of the ApoEgene, was cloned into a pGL3-Basic vector (E1751, Promega Corporation, Madison, Wis.) upstream of the firefly luciferase gene using NheI and SacI restriction enzymes. Then, multi-enhancer elements 1 (ME.1) and 2 (ME.2) were cloned directly upstream of the ApoE promoter using MluI and […] restriction enzymes. To assess ApoE promoter- and ME.1/ME.2-driven transcriptional activation by LXR agonists, 5×10^4 MeWo cells were seeded into a 24-well plate. […] To assess transcriptional activation by LXRα or LXRβ, 5×10^4 MeWo cells expressing a control shRNA or shRNA targeting LXRα or LXRβ were seeded into a 24-well plate. […] After 24 hours, cells were lysed, and cell lysate was analyzed for firefly and renilla luciferase activity using the Dual Luciferase Assay System (E1960, Promega) and a Bio-Tek Synergy NEO Microplate Reader. Firefly luciferase signal was normalized to renilla luciferase signal and all data are expressed relative to the luciferase activity ratio measured in the DMSO-treated control cells.

Row | SMILES | melanoma primary tumor growth in vivo (B16F10) [1] | potency of inducing ApoE expression in vitro (ApoE expression) | inhibiting cancer progression phenotypes (cell invasion, endothelial recruitment) [2] | pEC50 (LXRα) | primary tumor growth in vivo (FIG. 4) ([1]; mouse, in vivo) | ability to upregulate ApoE transcription and protein expression upon melanoma cell depletion of LXRβ, but not LXRα (ApoE promoter) | ability to suppress invasion and endothelial recruitment upon knockdown of melanoma LXRβ, but not LXRα ([2]; MeWo, HT-144)
1 | CC(C)(O)c1cn(-c2ccc(-c3cc(F)c(CO)c(S(C)(=O)=O)c3)cc2F)c(C(C)(C)c2c(Cl)cccc2Cl)n1 [Compound 112] | significantly inhibited | potently induce | more effective | – | – | – | –
2 | CC(C)(O)c1cn(-c2ccc(-c3cccc(S(C)(=O)=O)c3)cc2)c(C(C)(C)c2ccccc2Cl)n1 [Compound 113] | – | – | – | 6.00 to 7.00 | – | – | –
3 | CC(CCOc1cccc(CC(=O)O)c1)N(Cc1cccc(C(F)(F)F)c1Cl)CC(c1ccccc1)c1ccccc1 (centres unmarked) [SB742881 109] | significantly inhibited | potently induce | more effective | – | – | – | –
4 | O=S(=O)(c1ccccc1)N(CC(F)(F)F)c1ccc(C(O)(C(F)(F)F)C(F)(F)F)cc1 [TO901317 110] | – | potently induce | – | – | inhibit | abrogated | abrogated
